Measured values taken from publication PMC4158450 (Bioorganic & medicinal chemistry letters, 2014).
Values belong to the molecule of their own block, whether it stands above or below them.

What was measured:
rA3AR = details: in words; cited from earlier work
hA3AR [1] = molecular target: T1, hA3AR (Homo sapiens, UniProt P0DMS8); experiment: hA3AR radioligand binding; details: in words, vs hA1AR and hA2AAR
T1 sequence (P0DMS8 1-318): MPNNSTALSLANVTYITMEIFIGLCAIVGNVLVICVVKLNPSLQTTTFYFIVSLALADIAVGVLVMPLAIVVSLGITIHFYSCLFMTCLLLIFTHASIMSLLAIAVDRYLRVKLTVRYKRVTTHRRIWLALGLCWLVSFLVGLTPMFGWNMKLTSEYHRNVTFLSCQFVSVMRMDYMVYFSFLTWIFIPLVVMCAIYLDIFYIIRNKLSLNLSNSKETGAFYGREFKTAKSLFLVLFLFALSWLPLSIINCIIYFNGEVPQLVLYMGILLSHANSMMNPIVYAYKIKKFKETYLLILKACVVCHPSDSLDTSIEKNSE

hA2AAR = hA2AAR (Homo sapiens, UniProt P29274); experiment: hA2AAR radioligand binding
[2] = test system: chronic neuropathic pain (mechanoallodynia), CCI model; experiment: chronic constriction injury; type: in vivo, mouse; details: mice, oral administration
hA3AR [3] = molecular target: T1, hA3AR; details: 1S,2R diastereoisomer of 2 vs 1R,2S isomer; cited from earlier work

Sequence of hA2AAR (P29274 whole entry): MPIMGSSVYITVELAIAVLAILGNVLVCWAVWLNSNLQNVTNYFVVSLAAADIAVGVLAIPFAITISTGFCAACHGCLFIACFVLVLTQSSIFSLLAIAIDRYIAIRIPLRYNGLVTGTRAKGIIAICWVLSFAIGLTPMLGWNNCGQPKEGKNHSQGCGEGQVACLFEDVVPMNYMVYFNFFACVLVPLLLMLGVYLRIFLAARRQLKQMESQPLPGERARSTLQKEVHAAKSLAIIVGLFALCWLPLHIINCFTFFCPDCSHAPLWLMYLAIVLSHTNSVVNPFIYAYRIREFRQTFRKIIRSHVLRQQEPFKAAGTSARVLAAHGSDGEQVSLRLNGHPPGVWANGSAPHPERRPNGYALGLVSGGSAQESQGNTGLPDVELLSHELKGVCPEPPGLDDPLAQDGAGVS

SMILES: OC[C@H]1O[C@@H](n2cnc3c(NC4CC4c4ccccc4)nc(C#Cc4ccccc4)nc32)[C@H](O)[C@@H]1O (some centres unmarked) [Compound 1]
affinity at the rA3AR as compared to the hA3AR (rA3AR): substantially lower affinity

selectivity for the A3AR (hA3AR [1]): very selective
SMILES: CNC(=O)[C@@]12C[C@@H]1[C@@H](n1cnc3c(NC4CC4c4ccc(F)c(F)c4)nc(C#Cc4ccccc4)nc31)[C@H](O)[C@@H]2O (some centres unmarked) [Compound 15]

Ki (hA2AAR): ~1000 nM
SMILES: CNC(=O)[C@@]12C[C@@H]1[C@@H](n1cnc3c(N)nc(C#Cc4ccccc4)nc31)[C@H](O)[C@@H]2O [Compound 9]

SMILES: CNC(=O)[C@@]12C[C@@H]1[C@@H](n1cnc3c(N[C@@H]4C[C@H]4c4ccc(F)c(F)c4)nc(C#Cc4ccccn4)nc31)[C@H](O)[C@@H]2O [Compound 18]
time of peak effect post-administration [2]: 1 h

SMILES: O=[N+]([O-])c1cccc(C2CC2Nc2nc(C#Cc3ccccc3)nc3c2ncn3[C@@H]2O[C@H](CO)[C@@H](O)[C@H]2O)c1 (some centres unmarked) [Compound 2]
fold more potent in binding to the hA3AR than the corresponding 1R,2S isomer (hA3AR [3]): ~ 10 fold
